Substitutions are numbered along the chain they refer to. Names may count otherwise. “And” between values parts separate entries of the source, which are not always exact repeats. Identical values can stand only once. Like-named read-outs stand apart in the source and are kept apart here.
Tests used:
[1] = target: NLuc^N-PYR1^WIN (Arabidopsis) (UniProt O49686)
[2] = target: NLuc^N-PYR1^4F (Arabidopsis) (UniProt O49686)
[3] = target: NLuc^N-PYR1^PIRI (Arabidopsis) (UniProt O49686)
[4] = target: NLuc^N-PYR1^DIAZI (Arabidopsis) (UniProt O49686)
[5] = target: T1, PYR1^4F (Arabidopsis thaliana, UniProt O49686, A160G/F159V/H115Q/Y120G); test: Yeast transcriptional activation circuit Z4-PYR1/VP64-ΔN-HAB1, GFP reporter, PYR1^4F
T1 sequence (O49686 with tags, fused parts or gaps H115Q/Y120G/F159V/A160G): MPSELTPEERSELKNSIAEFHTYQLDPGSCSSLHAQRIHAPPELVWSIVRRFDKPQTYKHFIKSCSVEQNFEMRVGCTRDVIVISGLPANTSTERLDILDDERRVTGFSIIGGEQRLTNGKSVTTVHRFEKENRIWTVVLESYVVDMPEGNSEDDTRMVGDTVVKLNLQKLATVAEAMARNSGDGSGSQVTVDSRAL
T1 sequence (Q9CAJ0 179-511 partner): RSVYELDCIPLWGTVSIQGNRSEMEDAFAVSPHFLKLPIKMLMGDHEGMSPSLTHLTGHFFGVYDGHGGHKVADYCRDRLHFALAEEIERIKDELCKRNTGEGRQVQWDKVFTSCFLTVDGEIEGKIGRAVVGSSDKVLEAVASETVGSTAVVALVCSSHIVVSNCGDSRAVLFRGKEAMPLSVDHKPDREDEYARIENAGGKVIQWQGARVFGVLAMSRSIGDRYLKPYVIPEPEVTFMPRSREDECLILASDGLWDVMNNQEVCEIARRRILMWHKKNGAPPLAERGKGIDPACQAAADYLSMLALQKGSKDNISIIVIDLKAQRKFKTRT

[6] = target: T2, PYR1^4F / ΔN-HAB1 (Arabidopsis thaliana, UniProt O49686, A160G/F159V/H115Q/Y120G); test: Ligand/receptor-mediated PP2C (ΔN-HAB1 phosphatase) inhibition, PYR1^4F; format: biochemical
T2 construct: 6xHis (N); made in house; host or cells: E. coli BL21 (DE3) pLysS
T2 sequence (O49686 with tags, fused parts or gaps H115Q/Y120G/F159V/A160G): T1 sequence (O49686 with tags, fused parts or gaps H115Q/Y120G/F159V/A160G)
T2 sequence (Q9CAJ0 179-511 partner): T1 sequence (Q9CAJ0 179-511 partner)
Experimental: Coding sequences of the cannabinoid sensors were cloned into the protein expression vector pET28a to encode 6×His-tag-receptor fusions. Constructs were sequenced and transformed into the BL21 (DE3) pLysS E. coli strain for heterologous expression with IPTG (1 mM), followed by purification, using affinity chromatography, as previously reported. In vitro validation of evolved sensors was performed by using recombinant sensors and ΔN-HAB1 (HAB1 Δ1–178, ref. [36]) proteins, as previously described. […] Cannabinoid concentration curves ranged from 4 to 10,000 nM, and median inhibitory concentrations for PP2C inhibition were obtained via fluorescent measurement in the presence of 1 mM 4-methylumbelliferyl phosphate.

[7] = target: T3, PYR1^WIN-M (Arabidopsis thaliana, UniProt O49686, A160I/D26G/E4G/F159A/H60P/K59Q/N90S/Y23H); test: ELISA-like plate assay, immobilized PYR1^WIN-M, biotinylated ΔN-HAB1^T+; format: binding; conditions: replicates
T3 construct: made in house
T3 sequence (O49686 with tags, fused parts or gaps E4G/Y23H/D26G/K59Q/H60P/N90S/F159A/A160I): T1 sequence (O49686 with tags, fused parts or gaps H115Q/Y120G/F159V/A160G) with E4G, Y23H, D26G, K59Q, H60P, N90S, Q115H, G120Y, V159A, G160I

[8] = target: T1, PYR1^4F; test: Split NanoLuc luciferase complementation in yeast, NLuc^N-PYR1^4F/NLuc^C-ΔN-HAB1; format: cell-based; set-up: >PYR1-4FMDMB; expressed in transfected cells; host or cells: Saccharomyces cerevisiae BY4742
[9] = target: T4, PYR1^PIRI (Arabidopsis thaliana, UniProt O49686, A160T/E130G/F159T/K59R/N119S/S122Q/S92M/V174A); test: Split NanoLuc luciferase complementation in yeast, NLuc^N-PYR1^PIRI/NLuc^C-HAB1; format: cell-based
T4 construct: >PYR1-PIRI; expressed in transfected cells; host or cells: Saccharomyces cerevisiae BY4742

[10] = target: T5, PYR1^PIRI / HAB1 (Arabidopsis thaliana, UniProt O49686, A160T/E130G/F159T/K59R/N119S/S122Q/S92M/V174A); test: Ligand/receptor-mediated PP2C (HAB1 phosphatase) inhibition, PYR1^PIRI; format: biochemical
T5 construct: made in house
T5 sequence (O49686 with tags, fused parts or gaps K59R/S92M/N119S/S122Q/E130G/F159T/A160T/V174A): T1 sequence (O49686 with tags, fused parts or gaps H115Q/Y120G/F159V/A160G) with K59R, S92M, Q115H, N119S, G120Y, S122Q, E130G, V159T, G160T, V174A

[11] = target: T6, PYR1^M (H60P, N90S) (Arabidopsis thaliana, UniProt O49686, H60P/N90S); test: ELISA-like plate assay, immobilized PYR1^M, biotinylated ΔN-HAB1^T+, streptavidin-HRP; format: binding; conditions: for ELISA signal generation, positive control (source data): PYR1^M tested with ABA, replicates, listed as + CNTRL
T6 construct: made in house; host or cells: E. coli (pET derivatives)
T6 sequence (O49686 1-191 H60P/N90S): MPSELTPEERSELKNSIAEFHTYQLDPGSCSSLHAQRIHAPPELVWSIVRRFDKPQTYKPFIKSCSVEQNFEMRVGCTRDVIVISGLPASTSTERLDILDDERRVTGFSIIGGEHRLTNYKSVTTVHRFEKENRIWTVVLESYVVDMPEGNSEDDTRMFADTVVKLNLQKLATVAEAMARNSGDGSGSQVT
T6 sequence (Q9CAJ0 179-511 C186S/R199A/D204A/S209V/H248S/F260E/C274S/D287K/S292N/S342A/M358I/N377A/R422E/N439S/M483K partner): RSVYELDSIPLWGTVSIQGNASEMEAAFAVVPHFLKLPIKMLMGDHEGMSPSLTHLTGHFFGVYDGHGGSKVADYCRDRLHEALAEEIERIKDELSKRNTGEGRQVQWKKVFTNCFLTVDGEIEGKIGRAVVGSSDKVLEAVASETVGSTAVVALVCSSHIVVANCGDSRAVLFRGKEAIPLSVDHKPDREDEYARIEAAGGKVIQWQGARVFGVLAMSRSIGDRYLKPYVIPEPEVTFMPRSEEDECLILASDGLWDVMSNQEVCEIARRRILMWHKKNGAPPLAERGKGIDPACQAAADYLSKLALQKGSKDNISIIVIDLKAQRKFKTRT

[12] = target: T7, PYR1^DIAZI (Arabidopsis thaliana, UniProt O49686, A160V/E8G/F108Y/F159G/L87M/M158V/V81Y); test: Yeast transcriptional activation circuit Z4-PYR1/VP64-ΔN-HAB1, GFP reporter, PYR1^DIAZI; conditions: read-out: EC50, yeast transcription circuit; PYR1^DIAZI, off-target ligand
[13] = target: T7, PYR1^DIAZI; test: Split NanoLuc luciferase complementation in yeast, NLuc^N-PYR1^DIAZI/NLuc^C-HAB1; format: cell-based; set-up: >PYR1-DIAZI; expressed in transfected cells; host or cells: Saccharomyces cerevisiae BY4742; conditions: Figure 4f(top), 3 replicates
[14] = target: T8, ABA-PYR1M complex (Arabidopsis thaliana, UniProt O49686, H60P/N90S); test: Yeast surface display titration of HAB1 variants against PYR1^M in the presence of 500 nM ABA; format: binding; conditions: HAB1 variant for the ABA-PYR1M complex, 95% CI in brackets, read-out: KD2
T8 construct: c-myc (display detection tag); expressed in transfected cells; host or cells: yeast (surface display of PYR1^M); the HAB1 variants were recombinant and purified
T8 sequence (O49686 1-191 H60P/N90S): T6 sequence (O49686 1-191 H60P/N90S)
Experimental: For crystallographic structures, PYL2 and ΔN-HAB1^T+ were expressed in E. coli and purified as described previously. Assays for phosphatase activity and apparent Tm, measured via thermal challenge using yeast surface display, were performed essentially as previously described.
(a) Assessment of stabilized, inactivated 6xHis -MBP-ΔN -HAB1 variants. Experiments were repeated on two separat e days using independently generated batches of protein. Error bars indicate 1 SD of 3 measure ments . Sets of mutations f or each variant are noted in Supporting File 1.
MBP-ΔN -HAB1 variants using p-NPP.
HAB1 variants using YSD of PYR1M, in the presence of 500 nM ABA and 20 nM 6xHis -MBP-ΔN -HAB1 variant. The […]
here ref ers to streptavidin -phycoerythrin.
(b) Gating strategy for analysis of data shown in part (a). The f luorescence (a.u.) reported in part (a) is the gated ΔN - HAB 1T+ binding as measured by streptavidin -phycoeryt hrin (SAPE).

T7 sequence (O49686 other isoform, or with tags, fused parts or gaps E8G/V81Y/L87M/F108Y/M158V/F159G/A160V, one chain of several): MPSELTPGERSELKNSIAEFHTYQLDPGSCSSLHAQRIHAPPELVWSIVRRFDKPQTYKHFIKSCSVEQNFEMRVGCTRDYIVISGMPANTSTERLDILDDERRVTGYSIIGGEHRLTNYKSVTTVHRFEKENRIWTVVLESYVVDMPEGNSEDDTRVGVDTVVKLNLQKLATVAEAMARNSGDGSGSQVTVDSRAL
T4 sequence (O49686 other isoform, or with tags, fused parts or gaps K59R/S92M/N119S/S122Q/E130G/F159T/A160T/V174A, one chain of several): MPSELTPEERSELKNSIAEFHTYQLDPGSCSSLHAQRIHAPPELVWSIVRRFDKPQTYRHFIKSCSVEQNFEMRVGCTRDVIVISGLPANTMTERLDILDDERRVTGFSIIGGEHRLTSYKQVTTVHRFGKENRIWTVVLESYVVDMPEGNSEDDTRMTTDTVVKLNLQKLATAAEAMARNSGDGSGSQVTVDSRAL

NLuc^C-ΔN-HAB1 (from UniProt Q9CAJ0 179-511) (enzyme)
in vitro inhibition of ΔN-HAB1 phosphatase activity by recombinant 6×His-PYR1^WIN (50 nM receptor, 25 nM ΔN-HAB1, 4-methylumbelliferyl phosphate); EC50 of the ligand WIN 55,212-2 [1]: 72 nM | in vitro inhibition of ΔN-HAB1 phosphatase activity by recombinant 6×His-PYR1^4F (25 nM receptor, 25 nM ΔN-HAB1, 4-methylumbelliferyl phosphate); EC50 of the ligand 4F-MDMB-BUTINACA [2]: 102 nM | receptor-mediated inhibition of HAB1 phosphatase activity in vitro; EC50 of the ligand pirimiphos-methyl [3]: 58 nM | receptor-mediated inhibition of HAB1 phosphatase activity in vitro; EC50 of the ligand diazinon [4]: 36 nM

COC(=O)C(NC(=O)c1nn(CCCCF)c2ccccc12)C(C)(C)C (centres unmarked) [4F-MDMB, 4F-MDMB-BUTINACA]
EC50 [5]: 23 nM | EC50 [6]: 102 nM | ELISA signal generation, receptor cross-reactivity (source data) ([7]; cannabinoid at 2 nM): 0.813 and 0.154 and 0.125 | ELISA signal generation, receptor cross-reactivity (source data) ([7]; cannabinoid at 2 μM): 0.116 and 0.117 and 0.101 | EC50 [8]: 25 nM

CCN(CC)c1nc(C)cc(OP(=S)(OC)OC)n1 [Pirimiphos-methyl, pirimiphos-methyl]
EC50 [9]: 19 nM | EC50 [10]: 58 nM | ligand concentrations required for activation of PYR1^PIRI above background ([10]; HAB1 inhibition and Y2H assays): low-nanomolar concentrations

CC1=CC(=O)CC(C)(C)[C@@]1(O)/C=C/C(C)=C\C(=O)O [ABA, abscisic acid]
ELISA signal generation, positive control (source data) ([11]; 2 nM): 2.266 and 2.046 and 2.24 | ELISA signal generation, positive control (source data) ([11]; 2 μM): 3.553 and 3.555 and 3.41 | Amax [AU 450 nm] ([11]; global fit, PYR1M/ABA/ΔN-HAB1T+ system, Biorep 1-3): 2 AU 450 nm and 2.8 AU 450 nm | Kd ([11]; global fit, PYR1M/ABA/ΔN-HAB1T+ system, Biorep 1-3, read-out: KD1): 820 nM and 780 nM and 2090 nM

CCOP(=S)(OCC)SCn1nnc2ccccc2c1=O [Azinphos-ethyl, azinphos-ethyl]
EC50 [12]: 1100 nM | Sensor signal (Figure 4f top), replicate values ([13]; [Agonist] 1e-5 nM): 19.1784 and 9.602 and 15.5607 | Sensor signal (Figure 4f top), replicate values ([13]; [Agonist] 0.5 nM): 28.6964 and 14.557 and 20.4786 | Sensor signal (Figure 4f top), replicate values ([13]; [Agonist] 1 nM): 22.2741 and 20.8671 and 16.0353 | Sensor signal (Figure 4f top), replicate values ([13]; [Agonist] 10 nM): 14.152 and 32.187 and 17.3809 | Sensor signal (Figure 4f top), replicate values ([13]; [Agonist] 100 nM): 20.787 and 38.118 and 25.3718 | Sensor signal (Figure 4f top), replicate values ([13]; [Agonist] 1000 nM): 52.3582 and 54.3696 and 50.5941 | Sensor signal (Figure 4f top), replicate values ([13]; [Agonist] 10000 nM): 95.7293 and 70.2485 and 89.5341 | Sensor signal (Figure 4f top), replicate values ([13]; [Agonist] 100000 nM): 109.007 and 68.7025 and 93.3077

B1: T+ (723): stabilized, catalytically inactive ΔN-HAB1 derivative with 15 mutations (pJS723) (protein)
chain: T6 sequence (Q9CAJ0 179-511 C186S/R199A/D204A/S209V/H248S/F260E/C274S/D287K/S292N/S342A/M358I/N377A/R422E/N439S/M483K partner)
modifications: biotinylated in the ELISA-like assays
Kd ([14]; Biorep 1): 2.13 nM | Kd ([14]; Biorep 2): 4.76 nM

B2: WT (636): 6×His–MBP–ΔN-HAB1 (C186S, C274S) (protein)
chain: T1 sequence (Q9CAJ0 179-511 partner) with C8S, C96S
Kd ([14]; Biorep 1): 2.53 nM | Kd ([14]; Biorep 2): 5.01 nM
